Source: PubChem BioAssay (NCI)
Several values for one entry are separate records, joined by “and”; a condition that tells them apart may be missing. Identical values can stand only once.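 Results reflect a 48-hour exposure of cells in 96-well plates to compound at five concentrations. Abbreviation: GI50, concentration required for 50% inhibition of growth. TGI denotes the concentration required for complete inhibition of growth.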

Tests used:
Test in all cases: DTP human tumour cell line panel, 48 h
MOLT-4 leukemia = test system: MOLT-4 leukemia
KM12 colon = test system: KM12 colon
CAKI-1 renal = test system: CAKI-1 renal
HOP-62 NSCLC = test system: HOP-62 NSCLC
SK-MEL-5 melanoma = test system: SK-MEL-5 melanoma
786-0 renal = test system: 786-0 renal
HCT-15 colon = test system: HCT-15 colon
MCF7 breast = test system: MCF7 breast
NCI/ADR-RES ovarian = test system: NCI/ADR-RES ovarian
RXF 393 renal = test system: RXF 393 renal

SMILES | GI50 (MOLT-4 leukemia) | TGI (MOLT-4 leukemia) | GI50 (KM12 colon) | TGI (KM12 colon) | GI50 (CAKI-1 renal) | TGI (CAKI-1 renal) | GI50 (HOP-62 NSCLC) | TGI (HOP-62 NSCLC) | GI50 (SK-MEL-5 melanoma) | TGI (SK-MEL-5 melanoma) | GI50 (786-0 renal) | TGI (786-0 renal) | GI50 (HCT-15 colon) | TGI (HCT-15 colon) | GI50 (MCF7 breast) | TGI (MCF7 breast) | GI50 (NCI/ADR-RES ovarian) | TGI (NCI/ADR-RES ovarian) | GI50 (RXF 393 renal) | TGI (RXF 393 renal)
Cc1ccc(Cl)cc1NC(=O)c1sc2nc3c(cc2c1N)C(=O)CCC3 | > 100 µM | > 100 µM | 3.65 µM | > 100 µM | 3.33 µM | > 100 µM | > 100 µM | > 100 µM | 3.48 µM | > 100 µM | > 100 µM | > 100 µM | 4.79 µM | > 100 µM | 4.67 µM | > 100 µM | 5.28 µM | > 100 µM | 2.48 µM | 6.96 µM
CN(C)c1ccc(/C=C/c2cc[n+](C)c(/C=C/c3ccc(N(C)C)cc3)c2)cc1 | 0.388 µM | 3.53 µM | 0.33 µM | 1.42 µM | 1.42 µM | 7.4 µM | 0.345 µM | 2.31 µM | 0.204 µM | 0.465 µM | 0.387 µM | 1.7 µM | 0.904 µM | 9.74 µM | 0.272 µM | 1.13 µM | 3.81 µM | 18.7 µM | 0.389 µM | 1.91 µM
CN(C)CCCNC(=O)c1cc(NC(=O)c2cc(NC(=O)CCNS(=O)(=O)c3ccc4c(c3)C(=O)c3ccccc3C4=O)cn2C)cn1C | > 100 µM | > 100 µM | > 100 µM | > 100 µM | > 100 µM | > 100 µM | – | – | > 100 µM | > 100 µM | > 100 µM | > 100 µM | – | – | > 100 µM | > 100 µM | > 100 µM | > 100 µM | > 100 µM | > 100 µM
CN(C)CCNC(=O)c1ccc(NC(=O)c2nc([N+](=O)[O-])cn2C)cc1 | – | > 100 µM | – | > 100 µM | – | > 100 µM | – | > 100 µM | – | > 100 µM | – | > 100 µM | – | > 100 µM | – | > 100 µM | – | > 100 µM | – | > 100 µM
COc1cc(C2CC(c3ccc(Nc4ccnc5cc(Cl)ccc45)cc3)=NN2c2ccc(Cl)cc2)cc(OC)c1OC (stereo not drawn) | 3.86 µM | > 100 µM | 1.67 µM | > 100 µM | 2.12 µM | > 100 µM | 2.14 µM | 47.5 µM | 2.68 µM | 15.6 µM | 2.88 µM | > 100 µM | 0.877 µM | > 100 µM | 0.86 µM | > 100 µM | 1.7 µM | > 100 µM | 1.34 µM | 8.05 µM
N#C/C(=C\c1ccc(Br)cc1)n1nnc2ccc(F)cc21 | 2.18 µM | > 100 µM | 1.3 µM | 4.04 µM | 0.293 µM | 1.35 µM | 2.33 µM | 7.52 µM | 1.57 µM | 2.94 µM | 0.846 µM | 2.6 µM | 0.353 µM | 1.78 µM | 0.372 µM | 2.85 µM | 0.34 µM | 3.42 µM | 0.465 µM | 1.86 µM
O=C(/C=C/c1ccc(C(F)(F)F)cc1)c1ccc(Nc2nc(NCCO)nc(Nc3ccc(Cl)cc3)n2)cc1 | 3.56 µM | 12.6 µM | 2.13 µM | 4.84 µM | 5.12 µM | 18.8 µM | 8.55 µM | 22 µM | 14 µM | 29.6 µM | 2.25 µM | 5.36 µM | 2.08 µM | 5.92 µM | 1.49 µM | 5.56 µM | 5.58 µM | 26 µM | 1.82 µM | 4.16 µM
CSc1nc(SC)c2c(CO)c(Br)n(Cc3ccccc3)c2n1 | – | > 100 µM | – | > 100 µM | – | 23.6 µM | – | 80.1 µM | – | > 100 µM | – | 37.6 µM | – | > 100 µM | – | > 100 µM | – | > 100 µM | – | 60.3 µM
O=C1C[C@@H]2/C(=C(O)\C=C\c3ccccc3)C(=O)C=C[C@@H]2O1 | 1.85 µM | 5.77 µM | 0.505 µM | 1.82 µM | 2.35 µM | 11.8 µM | – | – | 2.01 µM | 4.82 µM | 1.74 µM | 3.49 µM | 1.3 µM | 3.69 µM | 0.83 µM | 13.5 µM | 0.69 µM | 3.4 µM | 1.47 µM | 2.83 µM
C#CCOc1cccc(Nc2ncnc3cc(NC(=O)CCl)ccc23)c1 | 1.96 µM | 7.42 µM | 4.34 µM | 16.8 µM | 3.51 µM | 15 µM | 11.3 µM | 28.8 µM | 6.31 µM | 19.4 µM | 4.68 µM | 18.5 µM | 1.51 µM | 6.8 µM | 1.95 µM | 7.99 µM | 4.13 µM | 42.9 µM | 13.2 µM | 27.7 µM
COc1cc(-c2nc(SCCC(C)C)nc(Nc3ccc(S(N)(=O)=O)cc3)c2C#N)cc(OC)c1OC | 2.39 µM | > 100 µM | 2.2 µM | 5.56 µM | 4 µM | > 100 µM | 4.12 µM | > 100 µM | 1.59 µM | 3.01 µM | 2.16 µM | 4.87 µM | 2.4 µM | > 100 µM | 3.19 µM | > 100 µM | 3.03 µM | > 100 µM | 1.83 µM | 3.97 µM
C=C(c1ccccc1)[C@@]1(O)CC[C@@H]1N(CC#N)Cc1ccccc1 | – | 69.2 µM | – | > 71.4 µM | – | 45.7 µM | – | > 100 µM | – | 31.8 µM | – | 35.4 µM | – | 34.6 µM | – | – | – | 43.8 µM | – | 34.6 µM
COC(=O)[C@@H](C)C[C@H](Cc1ccccc1)NC(=O)c1csc([C@@H](C[C@H](C(C)C)N(C)C(=O)[C@@H](NC(=O)[C@H]2CCCCN2C)C2CC2)OC(C)=O)n1 | 0.00464 µM and 0.00165 µM | > 16.5 µM | 0.000317 µM and 0.00165 µM | > 16.5 µM | 0.00577 µM | – | 0.000745 µM and 0.00165 µM | > 16.5 µM | – | 0.0138 µM and 0.00203 µM | 0.000456 µM and 0.00165 µM | > 16.5 µM | 0.00131 µM and 0.00165 µM | > 16.5 µM | – | > 16.5 µM | 0.0488 µM and 0.0603 µM | > 16.5 µM | – | –
